From ChEMBL document CHEMBL1201862, “PubChem BioAssay data set” (2004)
Calls of active or inactive are those of the source. Cut-off read from the data, not from the text of the source: actives have a measured IC50 and inactives only a lower limit.

Molecular target: Envelope glycoprotein gp160 (Human immunodeficiency virus 1, UniProt Q6QLK5)
Experiment: cell-free HIV fusion peptide-binding blockers – biochemical, uHTS, fluorescence dequenching, […] (AID 1986)

Sequence of Envelope glycoprotein gp160 (Q6QLK5 whole entry, the tested form may be a part): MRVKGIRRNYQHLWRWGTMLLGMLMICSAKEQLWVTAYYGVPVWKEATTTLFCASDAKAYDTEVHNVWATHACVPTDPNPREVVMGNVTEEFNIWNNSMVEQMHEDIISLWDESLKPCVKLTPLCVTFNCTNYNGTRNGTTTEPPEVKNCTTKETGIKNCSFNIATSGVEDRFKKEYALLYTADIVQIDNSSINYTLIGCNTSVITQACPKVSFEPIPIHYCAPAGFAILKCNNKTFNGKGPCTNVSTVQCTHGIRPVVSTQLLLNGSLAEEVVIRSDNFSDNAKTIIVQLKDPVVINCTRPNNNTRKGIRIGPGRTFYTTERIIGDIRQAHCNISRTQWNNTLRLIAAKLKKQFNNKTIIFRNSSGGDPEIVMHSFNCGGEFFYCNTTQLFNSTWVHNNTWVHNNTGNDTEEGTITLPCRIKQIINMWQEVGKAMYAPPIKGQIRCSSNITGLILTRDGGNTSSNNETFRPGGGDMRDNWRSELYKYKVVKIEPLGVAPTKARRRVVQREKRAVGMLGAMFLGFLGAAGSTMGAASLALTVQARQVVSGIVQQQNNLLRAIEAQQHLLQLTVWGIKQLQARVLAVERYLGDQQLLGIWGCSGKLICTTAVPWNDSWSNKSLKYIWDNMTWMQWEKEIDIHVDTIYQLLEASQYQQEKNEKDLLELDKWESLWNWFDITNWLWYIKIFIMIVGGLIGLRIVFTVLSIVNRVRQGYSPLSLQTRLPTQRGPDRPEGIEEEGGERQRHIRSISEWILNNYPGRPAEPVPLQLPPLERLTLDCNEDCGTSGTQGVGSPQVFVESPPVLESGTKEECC

## Oc1c(Br)cc(Br)c(/C=N/n2c(S)nnc2-c2ccccc2)c1Br
  IC50: 12 µM (active)
